The results in this text go back to patent US20240398784A1, “C-LINKED ISOQUINOLINE AMIDES AS LRRK2 INHIBITORS, PHARMACEUTICAL COMPOSITIONS, AND USES THEREOF” (Merck Sharp & Dohme LLC, priority 2021, published 2024).

The target in the experiment is LRRK2 G2019S (Homo sapiens, UniProt Q5S007, G2019S). In words: LRRK2 G2019S Km ATP LanthaScreen assay. It is filed as biochemical. The note with it: read-out: LRRK2 pIC50 (converted).
LRRK2 G2019S, sequence (Q5S007 whole entry G2019S): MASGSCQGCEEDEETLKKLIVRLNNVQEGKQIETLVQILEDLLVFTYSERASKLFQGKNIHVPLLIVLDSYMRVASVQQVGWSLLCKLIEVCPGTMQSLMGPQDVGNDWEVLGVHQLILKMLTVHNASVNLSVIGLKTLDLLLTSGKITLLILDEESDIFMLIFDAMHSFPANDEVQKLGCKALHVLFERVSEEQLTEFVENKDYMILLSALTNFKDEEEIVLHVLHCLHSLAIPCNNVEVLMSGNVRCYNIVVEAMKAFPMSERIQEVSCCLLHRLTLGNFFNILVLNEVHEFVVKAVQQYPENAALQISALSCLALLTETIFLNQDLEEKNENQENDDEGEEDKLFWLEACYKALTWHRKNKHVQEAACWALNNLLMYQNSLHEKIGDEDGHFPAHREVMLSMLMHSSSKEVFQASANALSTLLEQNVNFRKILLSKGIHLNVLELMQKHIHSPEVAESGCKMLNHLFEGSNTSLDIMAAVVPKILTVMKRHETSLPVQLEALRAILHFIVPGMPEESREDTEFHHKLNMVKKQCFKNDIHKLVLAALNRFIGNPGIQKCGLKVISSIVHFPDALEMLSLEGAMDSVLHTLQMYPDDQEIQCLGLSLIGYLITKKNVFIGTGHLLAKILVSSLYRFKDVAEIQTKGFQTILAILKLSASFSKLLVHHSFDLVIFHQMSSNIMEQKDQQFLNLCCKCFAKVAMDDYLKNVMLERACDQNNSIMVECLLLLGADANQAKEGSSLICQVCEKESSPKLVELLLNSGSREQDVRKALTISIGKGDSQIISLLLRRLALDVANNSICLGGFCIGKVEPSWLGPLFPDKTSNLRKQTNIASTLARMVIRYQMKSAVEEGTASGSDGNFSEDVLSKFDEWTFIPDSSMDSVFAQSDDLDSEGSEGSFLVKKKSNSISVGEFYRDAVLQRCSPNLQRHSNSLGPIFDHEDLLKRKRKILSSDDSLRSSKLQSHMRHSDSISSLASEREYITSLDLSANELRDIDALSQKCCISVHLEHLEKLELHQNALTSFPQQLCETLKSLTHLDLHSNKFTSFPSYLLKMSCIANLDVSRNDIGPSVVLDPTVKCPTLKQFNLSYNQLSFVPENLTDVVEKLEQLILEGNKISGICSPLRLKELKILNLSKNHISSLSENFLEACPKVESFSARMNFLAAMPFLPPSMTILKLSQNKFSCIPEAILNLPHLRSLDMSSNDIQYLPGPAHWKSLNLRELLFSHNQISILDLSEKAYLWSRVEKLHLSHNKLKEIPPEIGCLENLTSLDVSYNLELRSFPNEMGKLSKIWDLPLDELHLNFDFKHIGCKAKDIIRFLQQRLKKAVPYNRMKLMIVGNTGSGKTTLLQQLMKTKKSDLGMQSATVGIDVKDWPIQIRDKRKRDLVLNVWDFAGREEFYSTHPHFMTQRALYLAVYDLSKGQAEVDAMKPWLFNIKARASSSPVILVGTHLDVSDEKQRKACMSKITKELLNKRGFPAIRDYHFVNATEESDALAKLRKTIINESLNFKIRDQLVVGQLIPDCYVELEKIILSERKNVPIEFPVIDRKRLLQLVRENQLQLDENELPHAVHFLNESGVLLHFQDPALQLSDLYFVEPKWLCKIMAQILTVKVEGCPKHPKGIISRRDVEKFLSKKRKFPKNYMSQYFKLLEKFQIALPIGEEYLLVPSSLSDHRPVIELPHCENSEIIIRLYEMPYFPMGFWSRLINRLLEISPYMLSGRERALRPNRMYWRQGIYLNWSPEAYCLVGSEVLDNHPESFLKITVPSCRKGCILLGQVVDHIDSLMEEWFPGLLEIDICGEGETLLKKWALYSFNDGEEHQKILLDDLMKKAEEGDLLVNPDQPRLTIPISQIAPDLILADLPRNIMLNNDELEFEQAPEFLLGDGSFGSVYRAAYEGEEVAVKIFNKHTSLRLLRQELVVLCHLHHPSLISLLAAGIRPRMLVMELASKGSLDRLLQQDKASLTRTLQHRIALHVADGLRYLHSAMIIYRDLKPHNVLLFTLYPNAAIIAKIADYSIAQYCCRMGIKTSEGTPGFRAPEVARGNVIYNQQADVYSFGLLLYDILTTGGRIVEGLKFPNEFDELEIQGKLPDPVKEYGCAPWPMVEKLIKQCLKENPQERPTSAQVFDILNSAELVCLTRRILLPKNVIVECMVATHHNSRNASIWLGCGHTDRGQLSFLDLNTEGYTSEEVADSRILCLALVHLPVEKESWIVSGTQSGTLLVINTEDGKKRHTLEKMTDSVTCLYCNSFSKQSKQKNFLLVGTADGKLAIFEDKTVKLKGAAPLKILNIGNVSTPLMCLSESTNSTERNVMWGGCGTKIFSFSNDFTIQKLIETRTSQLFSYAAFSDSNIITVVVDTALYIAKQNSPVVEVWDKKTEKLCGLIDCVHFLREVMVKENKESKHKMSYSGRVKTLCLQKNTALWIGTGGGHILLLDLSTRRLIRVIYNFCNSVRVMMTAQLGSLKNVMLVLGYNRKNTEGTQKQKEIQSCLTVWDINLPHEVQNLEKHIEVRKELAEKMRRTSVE

`CC1(N2CCC(c3cc4cc(NC(=O)C5CCC5c5ccccn5)ncc4cc3Cl)CC2)COCC1O` (single isomer, unassigned) [Ex-4.74, N-(7-chloro-6-(1-(4-hydroxy-3-methyltetrahydrofuran-3-yl)piperidin-4-yl)isoquinolin-3-yl)-2-(pyridin-2-yl)cyclobutane-1-carboxamide]: the IC50 is 1780 nM.
The result for `CC1(C)CC(C(=O)Nc2cc3cc(C4CCC(N5CCC(F)C5)CC4)c(Cl)cc3cn2)CCO1` (single isomer, unassigned) [Ex-5.13, N-(7-chloro-6-(4-(3-fluoropyrrolidin-1-yl)cyclohexyl)isoquinolin-3-yl)-2,2-dimethyltetrahydro-2H-pyran-4-carboxamid] reads 479 nM; that for `CC1(N2CCC(c3cc4cc(NC(=O)C5CC56CCOC6)ncc4cc3Cl)CC2)COCC1F` (single isomer, unassigned) [Ex-6.4, (R or S)-N-(7-chloro-6-(1-((3R,4R or 3S,4S)-4-fluoro-3-methyltetrahydrofuran-3-yl)piperidin-4-yl)isoquinolin-3-yl)-5-oxaspiro [2.4] heptane-1-carboxamide], 141 nM; that for `COC1CCC(C(=O)Nc2cc3cc(C4CCN(C5(C)COCC5O)CC4)c(Cl)cc3cn2)CC1` (single isomer, unassigned) [Ex-10.2, 1,4-trans, (3R,4R)- or 1,4-trans, (3S,4S)- or 1,4-cis, (3R,4R)- or 1,4-cis, (3S,4S)-N-(7-chloro-6-(1-(4-hydroxy-3-methyltetrahydrofuran-3-yl)piperidin-4-yl)isoquinolin-3-yl)-4-methoxycyclohexane-1-carboxamide], 46.8 nM.
As for `Cn1ccc(C2CC2C(=O)Nc2cc3cc(C4(C#N)CC45CC5)ccc3cn2)n1` (stereo not drawn) [Ex-2.71], the IC50 is 5.75 nM.
The result for `CC1(N2CCC(c3cc4cc(NC(=O)C5CC5c5cc(F)ccn5)ncc4cc3Cl)CC2)COCC1O` (single isomer, unassigned) [Ex-4.39, N-(7-chloro-6-(1-(4-hydroxy-3-methyltetrahydrofuran-3-yl)piperidin-4-yl)isoquinolin-3-yl)-2-(4-fluoropyridin-2-yl)cyclopropane-1-carboxamide] reads 135 nM; that for `Cc1cc2cnc(NC(=O)C3C4CCOCC43)cc2cc1C1CCN(C2(C)COCC2O)CC1` (stereo not drawn) [Ex-2.51], 0.759 nM; that for `O=C(Nc1cc2cc(C3CCN(C4COCC4O)CC3)c(Cl)cc2cn1)C1CC1` (single isomer, unassigned) [Ex-12.5, N-(7-chloro-6-(1-(4-hydroxytetrahydrofuran-3-yl)piperidin-4-yl)isoquinolin-3-yl)cyclopropanecarboxamide], 2.88 nM.
As to `O=C(Nc1cc2cc(C3CCC(N4CC(F)C4)CC3)c(Cl)cc2cn1)C1CC12CCOCC2` (single isomer, unassigned) [Ex-11.5, N-(7-chloro-6-(4-(3-fluoroazetidin-1-yl)cyclohexyl)isoquinolin-3-yl)-6-oxaspiro[2.5]octane-1-carboxamide], the IC50 is 186 nM.
Under `CC1(N2CCC(c3cc4cc(NC(=O)C5CC56CCOC6)ncc4cc3Cl)CC2)COCC1F` (single isomer, unassigned) [Ex-6.1, (R or S)-N-(7-chloro-6-(1-((3R,4R or 3S,4S)-4-fluoro-3-methyltetrahydrofuran-3-yl)piperidin-4-yl)isoquinolin-3-yl)-5-oxaspiro [2.4] heptane-1-carboxamide] stands 42.7 nM.
For the molecule `Cc1cc2cnc(NC(=O)C3CC3c3cnn(C)c3)cc2cc1C1CC12CC2` (single isomer, unassigned) [Ex-16.3, 2-(1-methyl-1H-pyrazol-4-yl)-N-(7-methyl-6-(spiro[2.2]pentan-1-yl)isoquinolin-3-yl)cyclopropane-1-carboxamide], the IC50 is 10.5 nM.
For `CC(C(=O)Nc1cc2cc(C3CCN(C4(C)CCOC4O)CC3)c(Cl)cc2cn1)C1CCOCC1` (stereo not drawn) [Ex-2.104], the IC50 is 0.661 nM.
Regarding `Cc1cc2cnc(NC(=O)C3CC4(CC4)C3)cc2cc1C1CCN(C2(C)COCC2O)CC1` (single isomer, unassigned) [Ex-15.2, N-(6-(1-(4-hydroxy-3-methyltetrahydrofuran-3-yl)piperidin-4-yl)-7-methylisoquinolin-3-yl)spiro[2.3]hexane-5-carboxamide], the IC50 is 0.302 nM.
The result for `CC1(N2CCC(c3cc4cc(NC(=O)C5CC56CCOCC6)ncc4cc3Cl)CC2)COC(C2CC2)C1` (single isomer, unassigned) [Ex-6.17, N-(7-chloro-6-(1-(5-cyclopropyl-3-methyltetrahydrofuran-3-yl)piperidin-4-yl)isoquinolin-3-yl)-6-oxaspiro[2.5]octane-1-carboxamide] reads 3.55 nM.
Consider `COCC(C)c1cc2cc(NC(=O)C3CC3c3ccccn3)ncc2cc1Cl` (single isomer, unassigned) [Ex-9.20, N-(7-chloro-6-(1-methoxypropan-2-yl)isoquinolin-3-yl)-2-(pyridin-2-yl)cyclopropane-1-carboxamide], for which the IC50 was 29.5 nM.
The result for `Cc1cc2cnc(NC(=O)C3CC34CC4)cc2cc1C1CCN(C2(C)COCC2O)CC1` (single isomer, unassigned) [Ex-16.13, N-(6-(1-(4-hydroxy-3-methyltetrahydrofuran-3-yl)piperidin-4-yl)-7-methylisoquinolin-3-yl)spiro[2.2]pentane-1-carboxamide] reads 0.0813 nM.
Under `Cc1cc2cnc(NC(=O)C3CC3c3ccccn3)cc2cc1C1CCN(C2(C)COCC2F)CC1` (single isomer, unassigned) [Ex-13.2, (1R,2R or 1S,2S)-N-(6-(1-((3R,4R or 3S,4S)-4-fluoro-3-methyltetrahydrofuran-3-yl)piperidin-4-yl)-7-methylisoquinolin-3-yl)-2-(pyridin-2-yl)cyclopropane-1-carboxamide] stands 38.9 nM.
For the molecule `Cc1cc2cnc(NC(=O)C3CC3c3ccccn3)cc2cc1C1CCN(C2(C)COCC2O)CC1` (single isomer, unassigned) [Ex-4.77, N-(6-(1-(4-hydroxy-3-methyltetrahydrofuran-3-yl)piperidin-4-yl)-7-methylisoquinolin-3-yl)-2-(pyridin-2-yl)cyclopropane-1-carboxamide], the IC50 was 5.62 nM.
On to `CC1(N2CCC(c3cc4cc(NC(=O)C5CC5C5CCCCO5)ncc4cc3Cl)CC2)COCC1O` (single isomer, unassigned) [Ex-4.71, N-(7-chloro-6-(1-(4-hydroxy-3-methyltetrahydrofuran-3-yl)piperidin-4-yl)isoquinolin-3-yl)-2-(tetrahydro-2H-pyran-2-yl)cyclopropane-1-carboxamide], for which the IC50 is 0.0813 nM.
Turning to `CC1(N2CCC(c3cc4cc(NC(=O)C5CC5c5cc(F)ccn5)ncc4cc3Cl)CC2)COCC1O` (single isomer, unassigned) [Ex-4.40, N-(7-chloro-6-(1-(4-hydroxy-3-methyltetrahydrofuran-3-yl)piperidin-4-yl)isoquinolin-3-yl)-2-(4-fluoropyridin-2-yl)cyclopropane-1-carboxamide], the IC50 was 257 nM.
Under `CC1C(C(=O)Nc2cc3cc(C4CCN(C5(C)COCC5O)CC4)c(Cl)cc3cn2)C1c1ccccn1` (single isomer, unassigned) [Ex-4.54, N-(7-chloro-6-(1-(4-hydroxy-3-methyltetrahydrofuran-3-yl)piperidin-4-yl)isoquinolin-3-yl)-2-methyl-3-(pyridin-2-yl)cyclopropane-1-carboxamide] stands 9.12 nM; under `CC1(N2CCC(c3cc4cc(NC(=O)C5C6CCCOC65)ncc4cc3Cl)CC2)COCC1O` (single isomer, unassigned) [Ex-4.12, N-(7-chloro-6-(1-(4-hydroxy-3-methyltetrahydrofuran-3-yl)piperidin-4-yl)isoquinolin-3-yl)-2-oxabicyclo[4.1.0]heptane-7-carboxamide], 0.398 nM.
Under `CC1(N2CCC(c3cc4cc(NC(=O)C5(Cn6ccnc6)CC5)ncc4cc3Cl)CC2)COCC1O` (stereo not drawn) [Ex-3.3] stands 3.31 nM; under `N#CC1(c2ccc3cnc(NC(=O)C4CC45CCOCC5)cc3c2)CC12CC2` (single isomer, unassigned) [Ex-18.11, (R or S)-N-(6-((R or S)-1-cyanospiro[2.2]pentan-1-yl)isoquinolin-3-yl)-6-oxaspiro[2.5]octane-1-carboxamide], 9.55 nM; under `CC1(N2CCC(c3cc4cc(NC(=O)C5CC5c5cccs5)ncc4cc3Cl)CC2)COCC1O` (single isomer, unassigned) [Ex-4.60, N-(7-chloro-6-(1-(4-hydroxy-3-methyltetrahydrofuran-3-yl)piperidin-4-yl)isoquinolin-3-yl)-2-(thiophen-2-yl)cyclopropane-1-carboxamide], 0.0813 nM.
The result for `CC1(N2CCC(c3cc4cc(NC(=O)C5CC56CCC(F)(F)CC6)ncc4cc3Cl)CC2)COCC1O` (stereo not drawn) [Ex-2.17] reads 4.27 nM; that for `COC1COCC1(C)N1CCC(c2cc3cc(NC(=O)C4CC45CCOCC5)ncc3cc2Cl)CC1` (single isomer, unassigned) [Ex-6.22, N-(7-chloro-6-(1-(4-methoxy-3-methyltetrahydrofuran-3-yl)piperidin-4-yl)isoquinolin-3-yl)-6-oxaspiro[2.5]octane-1-carboxamide], 0.0813 nM.
Turning to `CC(C)OC1CCC(C(=O)Nc2cc3cc(C4(C#N)CC45CC5)ccc3cn2)OC1` (single isomer, unassigned) [Ex-1.28, N-(6-((R or S)-1-cyanospiro[2.2]pentan-1-yl)isoquinolin-3-yl)-5R or 5S-isopropoxytetrahydro-2H-pyran-2R-carboxamide], the IC50 is 24 nM.
`CC1(N2CCC(c3cc4cc(NC(=O)C5CC(F)(F)C5)ncc4cc3Cl)CC2)COCC1O` (single isomer, unassigned) [Ex-1.18, N-(7-chloro-6-(1-((3R,4R or 3S,4S)-4-hydroxy-3-methyltetrahydrofuran-3-yl)piperidin-4-yl)isoquinolin-3-yl)-3,3-difluorocyclobutane-1-carboxamide]: the IC50 was 1.35 nM.
For `CN(C)C1CCC2C(C(=O)Nc3cc4cc(C5CCN(C6(C)COCC6O)CC5)c(Cl)cc4cn3)C21` (single isomer, unassigned) [Ex-4.28, N-(7-chloro-6-(1-(4-hydroxy-3-methyltetrahydrofuran-3-yl)piperidin-4-yl)isoquinolin-3-yl)-2-(dimethylamino)bicyclo[3.1.0]hexane-6-carboxamide], the IC50 is 0.0813 nM.
